# Source: ChEMBL document CHEMBL5120822, “Inhibition of the P2X7/NLRP3 Inflammasome Signaling Pathway by Deacetylgedunin from Toona sinensis” (J Nat Prod, 2022)
# Activity calls are given as the source filed them. The calls are words filed in the database; no cut-off is given here.
# What was measured:
# RAW264.7 [1] = test: Cytotoxicity against mouse RAW264.7 cells derived macrophage assessed as reduction in cell viability upto 40 uM incubated for 24 hrs by CCK-8 assay; format: toxicity, cell-based; conditions: raw264.7, 24 h
# [2] = target: NACHT, LRR and PYD domains-containing protein 3 (Homo sapiens) (UniProt Q96P20); test: Inhibition of NLRP3 inflammasome activation in PMA-differentiated and LPS/ATP-stimulated human THP-1 cells assessed as inhibition of IL-1beta secretion at 5 to 20 uM incubated for 1 hrs followed by LPS stimulation for 12 hrs and ATP addition for 0.5 hrs by ELISA; format: cell-based; conditions: dose 5-20 µM, time 13.5 hrs, DDE = dose-dependent effect
# [3] = target: NACHT, LRR and PYD domains-containing protein 3 (Homo sapiens) (UniProt Q96P20); test: (§1) Inhibition of NLRP3 inflammasome activation in PMA-differentiated and LPS/ATP-stimulated human THP-1 cells assessed as decrease in IL-1beta expression at 5 to 20 uM incubated for 1 hrs followed by LPS stimulation for 12 hrs and ATP addition for 0.5 hrs by western blot analysis; format: cell-based; conditions: dose 5-20 µM, time 13.5 hrs
# [4] = target: NACHT, LRR and PYD domains-containing protein 3 (Homo sapiens) (UniProt Q96P20); test: (§2) Inhibition of NLRP3 inflammasome activation in PMA-differentiated and LPS/ATP-stimulated human THP-1 cells assessed as inhibition of IL-6 secretion at 20 uM incubated for 1 hrs followed by LPS stimulation for 12 hrs and ATP addition for 0.5 hrs by ELISA; format: cell-based; conditions: time 13.5 hrs
# THP-1 [5] = test: Antiinflammatory activity against PMA-differentiated human THP-1 cells assessed as reduction in IL-1beta level at 20 uM incubated for 1 hrs followed by LPS stimulation for 12 hrs and ATP addition for 0.5 hrs by ELISA; format: functional, cell-based; conditions: time 13.5 hrs
# THP-1 [6] = test: Antiinflammatory activity against PMA-differentiated and LPS/ATP stimulated human THP-1 cells assessed as increase in cell viability at 5 to 20 uM incubated for 1 hrs followed by LPS stimulation for 12 hrs and ATP addition for 0.5 hrs by LDH assay; format: functional, cell-based; conditions: dose 5-20 µM, time 13.5 hrs
# [7] = target: NACHT, LRR and PYD domains-containing protein 3 (Homo sapiens) (UniProt Q96P20); test: as §1, with “downregulation of NF-KappaB p65 subunit phosphorylation” for “decrease in IL-1beta expression”, “Western” for “western”; format: cell-based; conditions: dose 5-20 µM, time 13.5 hrs
# [8] = target: NACHT, LRR and PYD domains-containing protein 3 (Homo sapiens) (UniProt Q96P20); test: Inhibition of NLRP3 inflammasome activation in PMA-differentiated and LPS/MSU-stimulated human THP-1 cells assessed as decrease in IL-1beta expression at 20 uM incubated for 1 hrs followed by LPS stimulation for 12 hrs and MSU addition for 6 hrs by western blot analysis; format: cell-based; conditions: time 19.0 hrs
# J774.1 = test: Cytotoxicity against mouse J774.1 cells derived macrophage assessed as reduction in cell viability upto 40 uM incubated for 24 hrs by CCK-8 assay; format: toxicity, cell-based; conditions: j774.1, 24 h
# RAW264.7 [9] = test: Antiinflammatory activity in mouse RAW264.7 assessed as inhibition of LPS-induced NO production incubated for 1 hrs followed by LPS stimulation for 18 hrs by Griess reagent based assay; format: functional, cell-based
# [10] = target: NACHT, LRR and PYD domains-containing protein 3 (Homo sapiens) (UniProt Q96P20); test: Inhibition of NLRP3 inflammasome activation in PMA-differentiated and LPS/ATP-stimulated human THP-1 cells assessed as reduction in total NF-KappaB P65 nuclear expression at 5 to 20 uM incubated for 1 hrs followed by LPS stimulation for 12 hrs and ATP addition for 0.5 hrs by Western blot analysis; format: cell-based; conditions: dose 5-20 µM, time 13.5 hrs
# J774.A1 = test: Antiinflammatory activity against LPS/ATP-stimulated […] cells assessed as inhibition of ROS release at 20 uM incubated for 1 hrs followed by LPS stimulation for 12 hrs and ATP addition for 0.5 hrs by DCFH-DA staining based confocal microscopy; format: functional, cell-based; conditions: Mus musculus, time 13.5 hrs
# THP-1 [11] = test: Cytotoxicity against human THP-1 cells derived macrophage assessed as reduction in cell viability upto 40 uM incubated for 24 hrs by CCK-8 assay; format: toxicity, cell-based; conditions: thp-1, 24 h
# [12] = target: NACHT, LRR and PYD domains-containing protein 3 (Homo sapiens) (UniProt Q96P20); test: as §2, with “assessed as increase in intracellular chloride concentration” for “inhibition of IL-6 secretion”, “MQAE staining based flow cytometry” for “ELISA”; format: cell-based; conditions: time 13.5 hrs
# [13] = target: NACHT, LRR and PYD domains-containing protein 3 (Homo sapiens) (UniProt Q96P20); test: Inhibition of NLRP3 inflammasome activation in PMA-differentiated and LPS/NIG-stimulated human THP-1 cells assessed as decrease in IL-1beta expression at 20 uM incubated for 1 hrs followed by LPS stimulation for 12 hrs and NIG addition for 2 hrs by western blot analysis; format: cell-based; conditions: time 15.0 hrs
# [14] = target: NACHT, LRR and PYD domains-containing protein 3 (Homo sapiens) (UniProt Q96P20); test: Inhibition of NLRP3 inflammasome activation in PMA-differentiated and LPS/NIG-stimulated human THP-1 cells assessed as decrease in pro-IL-1beta expression at 20 uM incubated for 1 hrs followed by LPS stimulation for 12 hrs and NIG addition for 2 hrs by western blot analysis; format: cell-based; conditions: time 15.0 hrs
# [15] = target: NACHT, LRR and PYD domains-containing protein 3 (Homo sapiens) (UniProt Q96P20); test: Inhibition of NLRP3 inflammasome activation in PMA-differentiated and LPS/MSU-stimulated human THP-1 cells assessed as decrease in pro-caspase-1 expression at 20 uM incubated for 1 hrs followed by LPS stimulation for 12 hrs and MSU addition for 6 hrs by western blot analysis; format: cell-based; conditions: time 19.0 hrs
# [16] = target: NACHT, LRR and PYD domains-containing protein 3 (Homo sapiens) (UniProt Q96P20); test: Inhibition of NLRP3 inflammasome activation in PMA-differentiated and LPS/NIG-stimulated human THP-1 cells assessed as decrease of ASC polymers at 20 uM incubated for 1 hrs followed by LPS stimulation for 12 hrs and NIG addition for 2 hrs by Western blot analysis; format: cell-based; conditions: time 15.0 hrs
# [17] = target: NACHT, LRR and PYD domains-containing protein 3 (Homo sapiens) (UniProt Q96P20); test: Inhibition of NLRP3 inflammasome activation in PMA-differentiated and LPS/NIG-stimulated human THP-1 cells assessed as inhibition of IL-1beta secretion at 20 uM incubated for 1 hrs followed by LPS stimulation for 12 hrs and NIG addition for 2 hrs by ELISA; format: cell-based; conditions: time 15.0 hrs
# Sequence of NACHT, LRR and PYD domains-containing protein 3 (Homo sapiens) (Q96P20 whole entry, the tested form may be a part): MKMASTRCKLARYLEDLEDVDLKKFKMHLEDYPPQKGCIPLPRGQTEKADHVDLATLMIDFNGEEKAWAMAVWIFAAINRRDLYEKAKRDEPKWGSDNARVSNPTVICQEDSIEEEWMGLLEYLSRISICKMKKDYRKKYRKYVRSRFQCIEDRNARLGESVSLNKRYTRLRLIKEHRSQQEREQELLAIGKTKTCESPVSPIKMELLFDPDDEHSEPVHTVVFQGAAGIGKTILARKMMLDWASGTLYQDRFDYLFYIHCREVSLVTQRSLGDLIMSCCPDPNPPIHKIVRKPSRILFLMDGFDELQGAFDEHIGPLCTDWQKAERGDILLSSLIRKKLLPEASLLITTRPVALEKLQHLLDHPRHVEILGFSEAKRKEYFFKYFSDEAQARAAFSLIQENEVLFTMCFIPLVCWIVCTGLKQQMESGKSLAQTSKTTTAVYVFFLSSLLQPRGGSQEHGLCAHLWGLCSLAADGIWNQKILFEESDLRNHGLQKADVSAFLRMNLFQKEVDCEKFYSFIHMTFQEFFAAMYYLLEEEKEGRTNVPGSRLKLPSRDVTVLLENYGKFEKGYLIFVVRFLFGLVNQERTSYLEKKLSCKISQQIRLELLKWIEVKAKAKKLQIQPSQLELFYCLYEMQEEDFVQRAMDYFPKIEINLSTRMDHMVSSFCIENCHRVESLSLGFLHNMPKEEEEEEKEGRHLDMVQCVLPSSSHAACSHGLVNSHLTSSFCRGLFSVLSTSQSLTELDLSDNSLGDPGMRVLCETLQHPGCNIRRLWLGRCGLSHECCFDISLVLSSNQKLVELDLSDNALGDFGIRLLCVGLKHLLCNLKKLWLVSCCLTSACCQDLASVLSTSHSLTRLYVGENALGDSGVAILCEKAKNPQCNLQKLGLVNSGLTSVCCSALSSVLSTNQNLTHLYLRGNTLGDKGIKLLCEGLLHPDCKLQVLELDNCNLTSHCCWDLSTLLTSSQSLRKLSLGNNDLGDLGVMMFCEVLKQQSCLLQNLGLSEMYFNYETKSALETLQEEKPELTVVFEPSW
smiles,measurement,setting,value
CC1(C)C(=O)C=C[C@]2(C)[C@H]3CC[C@@]4(C)[C@H](c5ccoc5)OC(=O)[C@H]5O[C@]54[C@]3(C)[C@H](O)C[C@@H]12 [DEACETYLGEDUNIN],Activity,RAW264.7 [1],Non-Toxic
same,inhibition,[2],Dde
same,inhibition,[3],Active
same,inhibition,[4],Active
same,Activity,THP-1 [5],Active
same,Activity,THP-1 [6],Active
same,inhibition,[7],Active
same,inhibition,[8],Active
same,Activity,J774.1,Non-Toxic
same,IC50,RAW264.7 [9],9.19 µM
same,inhibition,[10],Active
same,Activity,J774.A1,Active
same,Activity,THP-1 [11],Non-Toxic
same,inhibition,[12],Active
same,inhibition,[13],Active
same,inhibition,[14],Active
same,inhibition,[15],Active
same,inhibition,[16],Active
same,inhibition,[17],Active
